# Experimental data from article PMC3672506, “A useful EGFR-TK ligand for tumor diagnosis with SPECT: development of radioiodinated 6-(3-morpholinopropoxy)-7-ethoxy-4-(3′-iodophenoxy)quinazoline” (Annals of Nuclear Medicine, 2013).
# Read-outs that look alike come from different tables or passages of the source.
# Tests used:
# A431 tumor [1] = assay: Tumor uptake of radioiodinated ligands in A431 tumor-bearing mice; type: in vivo, balb/c nude mice; settings: for accumulation in tumors: i.v.
# Protocol: A suspension of 1 × 10^7 A431 cells in 0.1 mL of medium was inoculated subcutaneously in male balb/c nude mice (4 weeks old, 20–25 g, n = 3). After approximately 2 weeks, when the solid tumor had grown to optimal size, the mice were used for tumor uptake studies. [^125I]6a–d (37 kBq, 74 TBq/mmol) in 0.1 mL of saline was injected intravenously into tumor-bearing mice via the lateral tail vein. At 1 or 24 h after administration, the animals were sacrificed. Samples of tumor were excised and weighed. Radioactivity was measured using a well-type NaI(Tl) scintillation gamma counter. The results were expressed in terms of percentage of injected dose per gram of tumor.
# A431 tumor [2] = type: in vivo, balb/c nude mice; settings: for Blood radioactivity / Brain radioactivity / Heart radioactivity / Kidney radioactivity / Liver radioactivity / Lung radioactivity / Muscle radioactivity / Pancreas radioactivity / Spleen radioactivity / Stomach radioactivity / Tumor radioactivity: A-431 tumor-bearing mice, i.v.
# Protocol: The animals were euthanized 1, 6, 12 or 24 h after injection of the radioligands (37 kBq, 74 TBq/mmol in 0.1 mL saline), and the distributions were studied as described above.
# In particular, the radioactivity accumulated in the liver 24 h after injection was approximately 1/50 of the radioactivity 1 h after injection. Thus, tumor-to-organ ratios for [^125I]PYK 24 h after injection had desirable values (Fig. 3b: tumor to lung: 8.5, tumor to kidney: 4.3, tumor to liver: 3.0) for tumor diagnostic imaging.
# [3] = molecular target: EGFR-TK in A431 cell membranes (Homo sapiens, UniProt P00533); type: binding
# EGFR-TK in A431 cell membranes, sequence (P00533 25-1210): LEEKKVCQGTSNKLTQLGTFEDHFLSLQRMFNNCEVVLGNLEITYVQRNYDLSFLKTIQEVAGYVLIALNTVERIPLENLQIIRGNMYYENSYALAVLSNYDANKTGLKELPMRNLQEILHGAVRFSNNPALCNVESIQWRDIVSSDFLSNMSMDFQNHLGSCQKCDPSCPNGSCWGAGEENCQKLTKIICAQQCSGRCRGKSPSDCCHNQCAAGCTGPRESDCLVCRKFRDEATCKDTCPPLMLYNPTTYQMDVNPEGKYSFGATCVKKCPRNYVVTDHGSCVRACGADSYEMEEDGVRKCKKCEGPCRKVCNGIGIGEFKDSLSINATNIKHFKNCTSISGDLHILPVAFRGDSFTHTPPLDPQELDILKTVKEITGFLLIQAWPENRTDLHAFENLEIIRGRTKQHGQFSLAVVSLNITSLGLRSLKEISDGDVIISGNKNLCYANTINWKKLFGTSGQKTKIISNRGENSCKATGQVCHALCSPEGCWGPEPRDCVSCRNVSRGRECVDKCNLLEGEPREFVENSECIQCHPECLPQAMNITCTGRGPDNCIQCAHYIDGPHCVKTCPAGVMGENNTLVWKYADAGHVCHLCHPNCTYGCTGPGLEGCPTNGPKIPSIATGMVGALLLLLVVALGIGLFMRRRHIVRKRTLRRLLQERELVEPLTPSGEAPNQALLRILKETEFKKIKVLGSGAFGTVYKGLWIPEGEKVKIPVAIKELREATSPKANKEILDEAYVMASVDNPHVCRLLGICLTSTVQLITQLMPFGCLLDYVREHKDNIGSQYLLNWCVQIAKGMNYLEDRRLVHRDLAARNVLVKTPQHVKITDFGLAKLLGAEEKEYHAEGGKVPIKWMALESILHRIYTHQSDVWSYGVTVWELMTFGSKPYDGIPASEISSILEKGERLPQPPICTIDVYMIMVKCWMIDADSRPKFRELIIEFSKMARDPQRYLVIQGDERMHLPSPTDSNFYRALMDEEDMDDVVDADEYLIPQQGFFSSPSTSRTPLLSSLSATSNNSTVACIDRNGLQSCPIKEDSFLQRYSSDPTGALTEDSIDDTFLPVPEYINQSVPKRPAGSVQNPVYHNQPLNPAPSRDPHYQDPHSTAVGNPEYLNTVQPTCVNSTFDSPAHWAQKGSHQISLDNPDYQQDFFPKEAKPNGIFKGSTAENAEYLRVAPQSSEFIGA
# Protocol: (§1) Assays were carried out as described in the previous section. Crude P2 membrane fractions (A431or NALM6, 0.1 mg of protein, 10 μL) and [^125I]PYK (1–300 nM, 100 μL, 0.74 kBq) were used. […] Specific binding was defined as the difference between the total and non-specific binding. Scatchard plot analysis of the saturation binding data was used to determine the equilibrium dissociation constant (K d) and the maximal number of binding sites (B max).
# (§2) The crude P2 membrane fraction from A431 or NAlM6 cells were used in further binding experiments for pharmacological characterization. […] While, in the NALM6 as a negative-EGFR leukemia cell line, [^125I]PYK binding to cell membranes was undetectable.
# NALM6 cell membranes = type: binding; settings: NALM6, negative-EGFR leukemia cell line
# Protocol: as §1, §2
# A431 tumor [4] = assay: SPECT/CT imaging of A431 tumor-bearing mice; type: in vivo; settings: 24 h after injection
# Protocol: The mice underwent SPECT/CT studies when A431 tumors had grown to optimal size (approximately 2 weeks after inoculation). ^125I gamma camera imaging and image processing were performed using a small-animal imaging system with pinhole collimation (aperture diameter = 1 mm, focal length = 9 cm) and a 15- to 45 keV photo peak energy window (PET/SPECT/CT FX system, Gamma Medica Ideas). […] 24 h after injection, SPECT scans were performed at 64 projections over 360° (ROR = 4.5 cm, 60 s/projection). Reconstructed data from SPECT and CT were visualized and coregistered using AMIRA 3.1.
# [^125I]PYK-SPECT images of tumors were very clear without interference from radioactivity in peripheral organs.
# [5] = A431 tumor-bearing mice, 24 h after injection
smiles,measurement,setting,value
CCOc1cc2ncnc(Oc3cccc([125I])c3)c2cc1OCCCN1CCOCC1 [[^125I]PYK],tumor accumulation relative to [125I]PHY,A431 tumor [1]; 1 h post injection,approximately 8 folds
same,retention in tumors (in words),A431 tumor [1]; [5],good retention
same,accumulation in tumors,"A431 tumor [1]; A431 tumor-bearing mice, 1 h post injection",4.37 ± 0.65 % ID/g tissue
same,accumulation in tumors,A431 tumor [1]; [5],1.53 ± 0.15 % ID/g tissue
same,liver radioactivity 24 h after injection relative to 1 h after injection,A431 tumor [2]; A431 tumor-bearing mice,approximately 1/50
same,tumor to kidney ratio,A431 tumor [2]; [5],4.3
same,tumor to liver ratio,A431 tumor [2]; [5],3.0
same,tumor to lung ratio,A431 tumor [2]; [5],8.5
same,tumor/blood ratio,A431 tumor [2]; [5],57.0
same,tumor/muscle ratio,A431 tumor [2]; [5],45.5
same,Blood radioactivity,A431 tumor [2]; 1 h after injection,0.80 ± 0.14 % injected dose per gram
same,Brain radioactivity,A431 tumor [2]; 1 h after injection,0.88 ± 0.07 % injected dose per gram
same,Heart radioactivity,A431 tumor [2]; 1 h after injection,1.19 ± 0.17 % injected dose per gram
same,Kidney radioactivity,A431 tumor [2]; 1 h after injection,7.40 ± 0.66 % injected dose per gram
same,Liver radioactivity,A431 tumor [2]; 1 h after injection,27.0 ± 1.29 % injected dose per gram
same,Lung radioactivity,A431 tumor [2]; 1 h after injection,4.14 ± 0.48 % injected dose per gram
same,Muscle radioactivity,A431 tumor [2]; 1 h after injection,1.34 ± 0.21 % injected dose per gram
same,Pancreas radioactivity,A431 tumor [2]; 1 h after injection,2.80 ± 0.19 % injected dose per gram
same,Spleen radioactivity,A431 tumor [2]; 1 h after injection,2.14 ± 0.04 % injected dose per gram
same,Stomach radioactivity,A431 tumor [2]; 1 h after injection,6.10 ± 2.08 % injected dose per gram
same,Tumor radioactivity,A431 tumor [2]; 1 h after injection,4.37 ± 0.65 % injected dose per gram
same,Blood radioactivity,A431 tumor [2]; 6 h after injection,0.20 ± 0.04 % injected dose per gram
same,Brain radioactivity,A431 tumor [2]; 6 h after injection,0.17 ± 0.03 % injected dose per gram
same,Heart radioactivity,A431 tumor [2]; 6 h after injection,0.50 ± 0.04 % injected dose per gram
same,Kidney radioactivity,A431 tumor [2]; 6 h after injection,3.53 ± 0.72 % injected dose per gram
same,Liver radioactivity,A431 tumor [2]; 6 h after injection,7.89 ± 1.45 % injected dose per gram
same,Lung radioactivity,A431 tumor [2]; 6 h after injection,2.29 ± 0.69 % injected dose per gram
same,Muscle radioactivity,A431 tumor [2]; 6 h after injection,0.39 ± 0.02 % injected dose per gram
same,Pancreas radioactivity,A431 tumor [2]; 6 h after injection,1.59 ± 0.25 % injected dose per gram
same,Spleen radioactivity,A431 tumor [2]; 6 h after injection,1.02 ± 0.18 % injected dose per gram
same,Stomach radioactivity,A431 tumor [2]; 6 h after injection,1.23 ± 0.60 % injected dose per gram
same,Tumor radioactivity,A431 tumor [2]; 6 h after injection,3.59 ± 0.73 % injected dose per gram
same,Blood radioactivity,A431 tumor [2]; 12 h after injection,0.06 ± 0.01 % injected dose per gram
same,Brain radioactivity,A431 tumor [2]; 12 h after injection,0.04 ± 0.01 % injected dose per gram
same,Heart radioactivity,A431 tumor [2]; 12 h after injection,0.14 ± 0.02 % injected dose per gram
same,Kidney radioactivity,A431 tumor [2]; 12 h after injection,1.06 ± 0.14 % injected dose per gram
same,Liver radioactivity,A431 tumor [2]; 12 h after injection,1.55 ± 0.32 % injected dose per gram
same,Lung radioactivity,A431 tumor [2]; 12 h after injection,0.61 ± 0.18 % injected dose per gram
same,Muscle radioactivity,A431 tumor [2]; 12 h after injection,0.09 ± 0.02 % injected dose per gram
same,Pancreas radioactivity,A431 tumor [2]; 12 h after injection,0.41 ± 0.06 % injected dose per gram
same,Spleen radioactivity,A431 tumor [2]; 12 h after injection,0.21 ± 0.01 % injected dose per gram
same,Stomach radioactivity,A431 tumor [2]; 12 h after injection,0.69 ± 0.51 % injected dose per gram
same,Tumor radioactivity,A431 tumor [2]; 12 h after injection,1.72 ± 0.42 % injected dose per gram
same,Blood radioactivity,A431 tumor [2]; 24 h after injection,0.03 ± 0.00 % injected dose per gram
same,Brain radioactivity,A431 tumor [2]; 24 h after injection,0.02 ± 0.00 % injected dose per gram
same,Heart radioactivity,A431 tumor [2]; 24 h after injection,0.05 ± 0.01 % injected dose per gram
same,Kidney radioactivity,A431 tumor [2]; 24 h after injection,0.36 ± 0.04 % injected dose per gram
same,Liver radioactivity,A431 tumor [2]; 24 h after injection,0.51 ± 0.35 % injected dose per gram
same,Lung radioactivity,A431 tumor [2]; 24 h after injection,0.18 ± 0.07 % injected dose per gram
same,Muscle radioactivity,A431 tumor [2]; 24 h after injection,0.03 ± 0.01 % injected dose per gram
same,Pancreas radioactivity,A431 tumor [2]; 24 h after injection,0.14 ± 0.02 % injected dose per gram
same,Spleen radioactivity,A431 tumor [2]; 24 h after injection,0.07 ± 0.03 % injected dose per gram
same,Stomach radioactivity,A431 tumor [2]; 24 h after injection,0.38 ± 0.19 % injected dose per gram
same,Tumor radioactivity,A431 tumor [2]; 24 h after injection,1.53 ± 0.15 % injected dose per gram
same,Bmax,"[3]; A431 P2 membranes, Scatchard analysis",27.0 ± 3.43 pmol/mg protein
same,Hill's constant value,[3]; A431 membranes,1.02
same,binding to cell membranes,NALM6 cell membranes,undetectable
same,SPECT images of tumors (in words),A431 tumor [4],very clear
